Patent publication US20260102324A1, “PERFUMING COMPOSITIONS COMPRISING A 2-(ALKYLSULFONYL)OCTAN-4-ONE” (FIRMENICH SA, priority 2022, published 2026)

Legend:
Format in all cases: physicochemical
[1] = Solubility measurements by light transparency (Crystalline PV instrument) on heating to 60° C. and cooling
Description: (§1) Solid 2-(dodecylsulfonyl)octan-4-one was mixed with different solvents and transferred to a 8 mL vial equipped with an overhead stirrer. The sample was placed in a Crystalline PV instrument (Technobis, The Netherlands). Heating and cooling steps were applied under mechanical stirring, and the samples were monitored by following transparency via a LED light beam that passes through the vial. Full (100%) transparency is attained when 2-(dodecylsulfonyl)octan-4-one is completely dissolved in the solvent. On the other hand, when the measured values of transparency are below 100% the dissolution process is still incomplete.
(§2) A first heating step was carried out by quickly (+5° C./min) heating the sample above its solubility temperature to 60° C. After complete dissolution, a cooling ramp to 1° C. was applied (−2° C./min), i.e. below the solubility temperature of the sample, where the sample was kept stirring until 2-(dodecylsulfonyl)octan-4-one has crystallized. Subsequently a second heating step was carried out by applying a shallow heating ramp (+0.1° C./min) in order to dissolve the material under quasi-isothermal conditions. The transparency of the sample was monitored as a function of time during the heating ramp. Once the signal has attained 100% transparency, the dissolution process was complete and the respective temperature was taken as the solubilization temperature (T_sol).
Following the methodology described above, 2-(dodecylsulfonyl)octan-4-one was mixed with various solvents/liquid carriers that are suitable for perfumery compositions or with perfumery raw materials at a concentration of 5 wt. % and the solubilization temperature has been determined. The solvents and perfumery raw materials used and the respective solubilization temperatures are depicted in Tables 1-3 below.

[2] = Solubility at 25° C. from exponential fit of temperature-solubility curves; settings: from extrapolation of temperature-solubility curves
Description: The solubility of 2-(dodecylsulfonyl)octan-4-one at 25° C. in various solvents or perfumery raw materials has been determined based on the data presented in Table 9. For each solvent or perfumery raw material, the measured solubility as a function of temperature has been fitted to an exponential function. The solubility at 25° C. has been obtained by extrapolation or interpolation of this exponential function. The results/exponential curves are shown in the Figure (black triangle: DIPG, grey squares: IPM, open diamonds: Hedione®, black circles: gamma-nonalactone and Cetiol® Ultimate (80/20); the continuous lines represent exponential functions fit to the experimental data).

[3] = Determination of the solubilization temperature (T_sol), shallow heating ramp to 100% transparency
Description: as §1, §2
Following the methodology described above, 2-(dodecylsulfonyl)octan-4-one was mixed with various solvents/liquid carriers that are suitable for perfumery compositions or with perfumery raw materials at a concentration of 5 wt. % and the solubilization temperature has been determined. The solvents and perfumery raw materials used and the respective solubilization temperatures are depicted in Tables 1-3 below. […]

[4] = 5 wt. % in Dimethylglutarate (DBE-5)
[5] = 5 wt. % in Dipropylene glycol (DIPG)
[6] = 5 wt. % in Fragrance composition F1
[7] = 5 wt. % in Fragrance composition F2
[8] = 5 wt. % in Fragrance composition F3
[9] = 5 wt. % in Fragrance composition F4
[10] = 5 wt. % in Fragrance composition F5
[11] = 5 wt. % in Isopropyl myristate (IPM)
[12] = 5 wt. % in gamma-Nonalactone/Cetiol ® Ultimate (80/20; w/w)
[13] = 5 wt. % in gamma-Valerolactone/Isopropyl Myristate (IPM) (70/30 w/w)

CCCCCCCCCCCCS(=O)(=O)C(C)CC(=O)CCCC (centres unmarked) [2-(dodecylsulfonyl)octan-4-one]
Soluble after cooling to 25° C. ([1]; 5 wt. % in Cetiol ® Ultimate): not capable of fully dissolving and no | Soluble at 60° C. ([1]; 5 wt. % in Cetiol ® Ultimate): yes | Soluble after cooling to 25° C. [1, 4]: not capable of fully dissolving and no | Soluble at 60° C. [1, 4]: yes | Soluble after cooling to 25° C. [1, 5]: not capable of fully dissolving and no | Soluble at 60° C. [1, 5]: yes | Soluble after cooling to 25° C. ([1]; 5 wt. % in Ethyl lactate): not capable of fully dissolving and no | Soluble at 60° C. ([1]; 5 wt. % in Ethyl lactate): yes | Soluble after cooling to 25° C. [1, 6]: yes | Soluble at 60° C. [1, 6]: yes | Soluble after cooling to 25° C. [1, 7]: yes | Soluble at 60° C. [1, 7]: yes | Soluble after cooling to 25° C. [1, 8]: yes | Soluble at 60° C. [1, 8]: yes | Soluble after cooling to 25° C. [1, 9]: yes | Soluble at 60° C. [1, 9]: yes | Soluble after cooling to 25° C. [1, 10]: yes | Soluble at 60° C. [1, 10]: yes | Soluble after cooling to 25° C. ([1]; 5 wt. % in Hedione ®): yes | Soluble at 60° C. ([1]; 5 wt. % in Hedione ®): yes | Soluble after cooling to 25° C. [1, 11]: not capable of fully dissolving and no | Soluble at 60° C. [1, 11]: yes | Soluble after cooling to 25° C. ([1]; 5 wt. % in Triacetine): not capable of fully dissolving and no | Soluble at 60° C. ([1]; 5 wt. % in Triacetine): yes | Soluble after cooling to 25° C. ([1]; 5 wt. % in Triethyl citrate): not capable of fully dissolving and no | Soluble at 60° C. ([1]; 5 wt. % in Triethyl citrate): yes | Soluble after cooling to 25° C. ([1]; 5 wt. % in gamma-Decalactone): yes | Soluble at 60° C. ([1]; 5 wt. % in gamma-Decalactone): yes | Soluble after cooling to 25° C. [1, 12]: yes | Soluble at 60° C. [1, 12]: yes | Soluble after cooling to 25° C. ([1]; 5 wt. % in gamma-Undecalactone): yes | Soluble at 60° C. ([1]; 5 wt. % in gamma-Undecalactone): yes | Soluble after cooling to 25° C. ([1]; 5 wt. % in gamma-Valerolactone): yes | Soluble at 60° C. ([1]; 5 wt. % in gamma-Valerolactone): yes | Soluble after cooling to 25° C. [1, 13]: yes | Soluble at 60° C. [1, 13]: yes | Solubility of 2-(dodecylsulfonyl)octan-4-one at 25° C. ([2]; in gamma-Valerolactone/IPM (70:30 w/w)): 11.3 wt. % | Solubility of 2-(dodecylsulfonyl)octan-4-one at 25° C. ([2]; in gamma-Valerolactone): 5.5 wt. % | T_sol ([3]; 5 wt. % in Cetiol ® Ultimate): 45.4 °C | T_sol [3, 4]: 27.3 °C | T_sol [3, 5]: 44.6 °C | T_sol ([3]; 5 wt. % in Ethyl lactate): 26.5 °C | T_sol [3, 6]: 21.1 °C | T_sol [3, 7]: 19.8 °C | T_sol [3, 8]: 17.8 °C | T_sol [3, 9]: 24.0 °C | T_sol [3, 10]: 16.3 °C | T_sol ([3]; 5 wt. % in Hedione ®): 21.0 °C | T_sol [3, 11]: 33.5 °C | T_sol ([3]; 5 wt. % in Triacetine): 41.1 °C | T_sol ([3]; 5 wt. % in Triethyl citrate): 36.2 °C | T_sol ([3]; 5 wt. % in gamma-Decalactone): 14.6 °C | T_sol [3, 12]: 10.5 °C | T_sol ([3]; 5 wt. % in gamma-Undecalactone): 15.3 °C | T_sol ([3]; 5 wt. % in gamma-Valerolactone): 23.0 °C | T_sol [3, 13]: 15.3 °C
